Data taken from patent US6774143B1, “Method for treating cells resistant to antineoplastic agents” (Novartis AG, priority 2003, dated 2004).

Test system: MIP 101 human colon tumor xenograft
Assay: Subcutaneous MIP 101 colon tumor model in athymic nude mice
Assay type: in vivo
Details: for fate of the animals: all animals
From the text: All cell lines that are used in animal studies are free of Mycoplasma contamination (Rapid Detection System by Gen-Probe, Inc., San Diego, Calif.) and viral contamination (MAP testing by MA BioServices, Inc., Rockville, Md.). The HCT-15 human colon tumor cell line is purchased from the American Type Culture Collection, Rockville, Md., Accession Number ATCC CCL 225. The MIP 101 human colon tumor cell line is obtained from Dr. R. Kramer (Bristol Meyers Squibb) and was previously described (Niles R M, et al. Cancer Invest. 1987;5(6):545-52). These cells are Pgp-1 (human Pgp) overexpressors, making the cells resistant to paclitaxel. All cell lines are propagated and expanded in RPMI 1640 medium containing 10% heat-inactivated FBS (Life Technologies, Grand Island, N.Y.). Cell expansions for implantation are performed in T225 tissue culture flasks. Cells are harvested at 70-90% confluency, washed once with HBSS containing 10% FBS, and are suspended in plain HBSS.
Outbred athymic (nu/nu) female mice (“Hsd:Athymic Nude-nu” from Harlan Sprague Dawley, Indianapolis, Ind.) are anesthetized with Metofane (Mallinckrodt Veterinary, Inc., Mundelein, Ill.,). A cell suspension (100 μL) containing 1×10^6 cells is then injected sc into the right axillary (lateral) region of each animal. Tumors are allowed to grow until a volume of approximately 100 mm^3 was achieved. At this point, mice bearing tumors are sorted into groups of eight for the study. The sorting process produced groups balanced with respect to mean and range of tumor size.
Discodermolide is isolated from the sponge Discodermia dissoluta using the methods of (Gunasekera S P, et al. supra). Multiple batches of compound of similar purity (all>95% pure, as determined by mass spectrometry, and nuclear magnetic resonance analysis) are used throughout the various studies. Solid discodermolide is dissolved in pure ethanol to create a stock solution which is diluted just before dosing with Cremophor EL (Crm) and D5W to a final concentration of 16.7% Cremophor EL, 8.3% ethanol and 75% D5W. The compound is administered intravenously (iv). In the first study discodermolide is tested against both tumors at five different dosing schedules: (i.) 30 mg/kg dosed as two 15 mg/kg injections on day 1 of the experiment, (ii.) 30 mg/kg dosed as three 10 mg/kg injections on days 1, 2, and 3, (iii.) 15 mg/kg dosed as a single injection on day 1, (iv.) 20 mg/kg dosed as a 15 mg/kg injection on day 1, followed by a 5 mg/kg injection on day 11, and (v.) 10 mg/kg dosed as a 7.5 mg/kg injection on day 1 followed by a 2.5 mg/kg injection on day 11. In the second study discodermolide is dosed as one injection on the first day of the experiment, at 2.5 mg/kg, 5 mg/kg, 7.5 mg/kg, 10 mg/kg, 12.5 mg/kg, or 15 mg/kg. In addition the 7.5 mg/kg injection on day 1 followed by a 2.5 mg/kg injection on day 11 is repeated from the first study. The actual doses, regimens and routes of administration used for the specific models are discussed in each section separately. Positive control animals receive clinical formulations of paclitaxel (TAXOL) diluted 4-fold with D5W and administered iv once daily for five consecutive days. Vehicle control for paclitaxel is administered according to paclitaxel's schedule. In the first study vehicle controls for discodermolide (16.7% Cremophor EL, 8.3% ethanol and 75% D5W) are administered as three daily injections on days 1, 2, and 3, or as two injections on days 1, and 11. In the second study vehicle control for discodermolide is administered as a single injection on day 1.
Tumors are measured, and individual animal body weights are recorded once weekly. Standard experiments are conducted for 3 full weeks from the initial dosing.
Antitumor activity is expressed as % T/C (comparing Δ tumor volumes for treatment group to vehicle control group). […]

[1] = first study, 7.5 mg/kg day 1 + 2.5 mg/kg day 11
[2] = first study, discodermolide iv single 15 mg/kg injection on day 1
[3] = first study, two 15 mg/kg injections on day 1 (30 mg/kg total)
[4] = second study, 7.5 mg/kg day 1 + 2.5 mg/kg day 11

C=C/C=C\[C@H](C)[C@H](OC(N)=O)[C@@H](C)[C@H](O)[C@@H](C)C/C(C)=C\[C@H](C)[C@@H](O)[C@@H](C)/C=C\[C@@H](O)C[C@@H]1OC(=O)[C@H](C)[C@@H](O)[C@H]1C [discodermolide, (+)-Discodermolide]
inhibition of tumor growth (in words) (MIP 101 xenograft, athymic nude mice): statistically significant (p<0.01) and reproducible inhibition of tumor growth | T/C [1]: 38% | body weight loss [1]: 21.3% | fate of the animals (first study, 15 mg/kg day 1 + 5 mg/kg day 11): sacrificed in the beginning of the third week of the experiment due to the excessive body weight loss | fate of the animals (first study, 30 mg/kg as three 10 mg/kg injections on days 1, 2, 3): die on day 5 of the experiment | T/C [2]: 36% | body weight loss [2]: 18.9% | T/C [3]: 24% | body weight loss [3]: 23.4% | T/C [4]: 35% | body weight loss [4]: 11.4% | deaths [4]: One animal in that group dies from apparent drug toxicity | body weight loss (second study, single injection 2.5 mg/kg): 7.9% | T/C (second study, single injection 2.5 mg/kg day 1): 59% | body weight loss (second study, single injection 5 mg/kg): 10.2% | T/C (second study, single injection 5 mg/kg day 1): 57% | body weight loss (second study, single injection 7.5 mg/kg): 13.2% | T/C (second study, single injection 7.5 mg/kg day 1): 46% | body weight loss (second study, single injection 10 mg/kg): 18.7% | T/C (second study, single injection 10 mg/kg day 1): 37% | body weight loss (second study, single injection 12.5 mg/kg): 15.5% | T/C (second study, single injection 12.5 mg/kg day 1): 22% | body weight loss (second study, single injection 15 mg/kg): 11.7% | T/C (second study, single injection 15 mg/kg day 1): 18%

CC(=O)O[C@H]1C(=O)[C@@]2(C)[C@H]([C@H](OC(=O)c3ccccc3)[C@]3(O)C[C@H](OC(=O)[C@H](O)[C@@H](NC(=O)c4ccccc4)c4ccccc4)C(C)=C1C3(C)C)[C@]1(OC(C)=O)CO[C@@H]1C[C@@H]2O [paclitaxel, reference compound]
T/C (first study, paclitaxel 15 mg/kg daily for the first 5 days): 82% | T/C (second study, paclitaxel iv once daily for five days, p<0.01): 54%
